Organism: Rattus norvegicus
Experiment: Open TG-GATES - Regimen: Daily Repeat
Format: toxicity, organism-based, Sprague-Dawley
Set-up: regimen Daily Repeat, gender Male, age 6 weeks
Settings: in vivo, po, route gavage; for APTT / Bas / Eos / Fbg / Hb / Ht / Lym / MCH / MCHC / MCV / Mono / Neu / PT / Plat / RBC / Ret / WBC: tissue Blood; for KIDNEY_L / KIDNEY_R / KIDNEY_TOTAL: tissue Kidney; for LIVER: tissue Liver; for A/G / ALP / ALT / AST / BUN / CRE / Ca / Cl / DBIL / GLC / IP / K / LDH / Na / PL / RALB / TBIL / TC / TG / TP / gamma-GTP: tissue Plasma
[1] = 0 mg/kg, 72 h, dose level Control, time 3 day
[2] = 0 mg/kg, […], dose level Control, time 7 day
[3] = 0 mg/kg, […], dose level Control, time 14 day
[4] = 0 mg/kg, […], dose level Control, time 28 day
[5] = 15 mg/kg, 72 h, dose level Low, time 3 day
[6] = 15 mg/kg, […], dose level Low, time 7 day
[7] = 15 mg/kg, […], dose level Low, time 14 day
[8] = 15 mg/kg, […], dose level Low, time 28 day

Nc1nc(N)c2nc(-c3ccccc3)c(N)nc2n1
TERMINAL_BW [1]: 242.6 g
APTT [1]: 16.3 s
Bas [1]: 0.2%
Eos [1]: 1%
Fbg [1]: 334.2 mg/dL
Hb [1]: 13.8 g/dL
Ht [1]: 40.7%
Lym [1]: 78.8%
MCH [1]: 20.8 pg
MCHC [1]: 33.9%
MCV [1]: 61.3 fL
Mono [1]: 2.2%
Neu [1]: 17.2%
PT [1]: 13.9 s
Plat [1]: 128.5 x10_4/uL
RBC [1]: 664.4 x10_4/ul
Ret [1]: 6.2%
WBC [1]: 102.2 x10_2/uL
KIDNEY_L [1]: 1.1 g
KIDNEY_R [1]: 1.1 g
KIDNEY_TOTAL [1]: 2.1 g
LIVER [1]: 11.1 g
A/G [1]: 0.9
ALP [1]: 1605.2 IU/L
ALT [1]: 41.4 IU/L
AST [1]: 69.4 IU/L
BUN [1]: 15 mg/dL
CRE [1]: 0.2 mg/dL
Ca [1]: 10.9 mg/dL
Cl [1]: 105.2 meq/L
DBIL [1]: 0.01 mg/dL
GLC [1]: 166 mg/dL
IP [1]: 7.7 mg/dL
K [1]: 4.1 meq/L
LDH [1]: 60.2 IU/L
Na [1]: 142.6 meq/L
PL [1]: 152.4 mg/dL
RALB [1]: 2.6 g/dL
TBIL [1]: 0.042 mg/dL
TC [1]: 80.6 mg/dL
TG [1]: 102.4 mg/dL
TP [1]: 5.6 g/dL
gamma-GTP [1]: 1 IU/L
TERMINAL_BW [2]: 286.3 g
TERMINAL_BW [3]: 328 g
TERMINAL_BW [4]: 424 g
APTT [2]: 18 s
Bas [2]: 0%
Eos [2]: 0.6%
Fbg [2]: 302.8 mg/dL
Hb [2]: 13.9 g/dL
Ht [2]: 42.9%
Lym [2]: 78.8%
MCH [2]: 20.6 pg
MCHC [2]: 32.5%
MCV [2]: 63.6 fL
Mono [2]: 2.6%
Neu [2]: 17.6%
PT [2]: 13.3 s
Plat [2]: 136.4 x10_4/uL
RBC [2]: 675.8 x10_4/ul
Ret [2]: 5.9%
WBC [2]: 94 x10_2/uL
APTT [3]: 18.4 s
Bas [3]: 0%
Eos [3]: 1%
Fbg [3]: 313.2 mg/dL
Hb [3]: 14.6 g/dL
Ht [3]: 44.3%
Lym [3]: 78.4%
MCH [3]: 19.5 pg
MCHC [3]: 33%
MCV [3]: 59.2 fL
Mono [3]: 2.6%
Neu [3]: 18%
PT [3]: 13.2 s
Plat [3]: 132.7 x10_4/uL
RBC [3]: 748 x10_4/ul
Ret [3]: 3.7%
WBC [3]: 91.5 x10_2/uL
APTT [4]: 18 s
Bas [4]: 0.6%
Eos [4]: 1.2%
Fbg [4]: 294.6 mg/dL
Hb [4]: 15.4 g/dL
Ht [4]: 46.3%
Lym [4]: 82.6%
MCH [4]: 18.8 pg
MCHC [4]: 33.3%
MCV [4]: 56.5 fL
Mono [4]: 2.2%
Neu [4]: 13.6%
PT [4]: 13 s
Plat [4]: 111.3 x10_4/uL
RBC [4]: 819.6 x10_4/ul
Ret [4]: 2.3%
WBC [4]: 87 x10_2/uL
KIDNEY_L [2]: 1.2 g
KIDNEY_R [2]: 1.2 g
KIDNEY_TOTAL [2]: 2.3 g
KIDNEY_L [3]: 1.2 g
KIDNEY_R [3]: 1.2 g
KIDNEY_TOTAL [3]: 2.4 g
KIDNEY_L [4]: 1.5 g
KIDNEY_R [4]: 1.4 g
KIDNEY_TOTAL [4]: 2.9 g
LIVER [2]: 13.7 g
LIVER [3]: 13.8 g
LIVER [4]: 16.7 g
A/G [2]: 0.9
ALP [2]: 1612.4 IU/L
ALT [2]: 43.2 IU/L
AST [2]: 63.4 IU/L
BUN [2]: 16.2 mg/dL
CRE [2]: 0.2 mg/dL
Ca [2]: 11.1 mg/dL
Cl [2]: 104.4 meq/L
DBIL [2]: 0.014 mg/dL
GLC [2]: 186.2 mg/dL
IP [2]: 7.7 mg/dL
K [2]: 4.3 meq/L
LDH [2]: 63.4 IU/L
Na [2]: 142.4 meq/L
PL [2]: 179.4 mg/dL
RALB [2]: 2.7 g/dL
TBIL [2]: 0.076 mg/dL
TC [2]: 90.2 mg/dL
TG [2]: 133 mg/dL
TP [2]: 5.8 g/dL
gamma-GTP [2]: 1 IU/L
A/G [3]: 0.8
ALP [3]: 1497.6 IU/L
ALT [3]: 34 IU/L
AST [3]: 60 IU/L
BUN [3]: 14.6 mg/dL
CRE [3]: 0.2 mg/dL
Ca [3]: 10.6 mg/dL
Cl [3]: 105.6 meq/L
DBIL [3]: 0.01 mg/dL
GLC [3]: 191.6 mg/dL
IP [3]: 7.5 mg/dL
K [3]: 4 meq/L
LDH [3]: 60.4 IU/L
Na [3]: 143 meq/L
PL [3]: 154.4 mg/dL
RALB [3]: 2.7 g/dL
TBIL [3]: 0.068 mg/dL
TC [3]: 72.8 mg/dL
TG [3]: 141.6 mg/dL
TP [3]: 5.9 g/dL
gamma-GTP [3]: 1 IU/L
A/G [4]: 0.8
ALP [4]: 1077.6 IU/L
ALT [4]: 40 IU/L
AST [4]: 67.4 IU/L
BUN [4]: 16 mg/dL
CRE [4]: 0.2 mg/dL
Ca [4]: 10.8 mg/dL
Cl [4]: 104.2 meq/L
DBIL [4]: 0.012 mg/dL
GLC [4]: 194.8 mg/dL
IP [4]: 6.5 mg/dL
K [4]: 3.8 meq/L
LDH [4]: 76.4 IU/L
Na [4]: 143.4 meq/L
PL [4]: 144.8 mg/dL
RALB [4]: 2.8 g/dL
TBIL [4]: 0.066 mg/dL
TC [4]: 68.2 mg/dL
TG [4]: 149.6 mg/dL
TP [4]: 6.3 g/dL
gamma-GTP [4]: 1 IU/L
TERMINAL_BW [5]: 248.4 g
APTT [5]: 16.1 s
Bas [5]: 0.2%
Eos [5]: 0.6%
Fbg [5]: 310.8 mg/dL
Hb [5]: 14.1 g/dL
Ht [5]: 41.7%
Lym [5]: 78.4%
MCH [5]: 21.8 pg
MCHC [5]: 33.8%
MCV [5]: 64.7 fL
Mono [5]: 2.2%
Neu [5]: 18.2%
PT [5]: 13.8 s
Plat [5]: 132.9 x10_4/uL
RBC [5]: 645.4 x10_4/ul
Ret [5]: 6.8%
WBC [5]: 109.4 x10_2/uL
KIDNEY_L [5]: 1.1 g
KIDNEY_R [5]: 1 g
KIDNEY_TOTAL [5]: 2.1 g
LIVER [5]: 11.6 g
A/G [5]: 0.9
ALP [5]: 1861.8 IU/L
ALT [5]: 41.4 IU/L
AST [5]: 66 IU/L
BUN [5]: 14.8 mg/dL
CRE [5]: 0.2 mg/dL
Ca [5]: 11 mg/dL
Cl [5]: 105.4 meq/L
DBIL [5]: 0.01 mg/dL
GLC [5]: 175.2 mg/dL
IP [5]: 7.8 mg/dL
K [5]: 3.8 meq/L
LDH [5]: 67.2 IU/L
Na [5]: 142.8 meq/L
PL [5]: 159.4 mg/dL
RALB [5]: 2.6 g/dL
TBIL [5]: 0.042 mg/dL
TC [5]: 81.4 mg/dL
TG [5]: 115 mg/dL
TP [5]: 5.6 g/dL
gamma-GTP [5]: 1.2 IU/L
TERMINAL_BW [6]: 282.4 g
TERMINAL_BW [7]: 340.6 g
TERMINAL_BW [8]: 410.6 g
APTT [6]: 16.7 s
Bas [6]: 0%
Eos [6]: 1%
Fbg [6]: 313.2 mg/dL
Hb [6]: 13.7 g/dL
Ht [6]: 42.1%
Lym [6]: 77.2%
MCH [6]: 20.1 pg
MCHC [6]: 32.4%
MCV [6]: 61.9 fL
Mono [6]: 2.4%
Neu [6]: 19.2%
PT [6]: 13.9 s
Plat [6]: 123.2 x10_4/uL
RBC [6]: 679.2 x10_4/ul
Ret [6]: 5.5%
WBC [6]: 88.7 x10_2/uL
APTT [7]: 18 s
Bas [7]: 0%
Eos [7]: 1%
Fbg [7]: 295.2 mg/dL
Hb [7]: 14.5 g/dL
Ht [7]: 44.4%
Lym [7]: 79.2%
MCH [7]: 20.2 pg
MCHC [7]: 32.7%
MCV [7]: 61.6 fL
Mono [7]: 2.2%
Neu [7]: 17.2%
PT [7]: 13.1 s
Plat [7]: 114.4 x10_4/uL
RBC [7]: 720.6 x10_4/ul
Ret [7]: 4.2%
WBC [7]: 94.6 x10_2/uL
APTT [8]: 18.6 s
Bas [8]: 0.2%
Eos [8]: 1.2%
Fbg [8]: 294.8 mg/dL
Hb [8]: 15.6 g/dL
Ht [8]: 46.4%
Lym [8]: 78.6%
MCH [8]: 18.9 pg
MCHC [8]: 33.6%
MCV [8]: 56.3 fL
Mono [8]: 1.8%
Neu [8]: 17.6%
PT [8]: 13.4 s
Plat [8]: 111.2 x10_4/uL
RBC [8]: 825 x10_4/ul
Ret [8]: 2.1%
WBC [8]: 89.6 x10_2/uL
KIDNEY_L [6]: 1.2 g
KIDNEY_R [6]: 1.1 g
KIDNEY_TOTAL [6]: 2.3 g
KIDNEY_L [7]: 1.3 g
KIDNEY_R [7]: 1.2 g
KIDNEY_TOTAL [7]: 2.5 g
KIDNEY_L [8]: 1.4 g
KIDNEY_R [8]: 1.4 g
KIDNEY_TOTAL [8]: 2.8 g
LIVER [6]: 13.1 g
LIVER [7]: 14.6 g
LIVER [8]: 15.5 g
A/G [6]: 0.8
ALP [6]: 1439.8 IU/L
ALT [6]: 39.8 IU/L
AST [6]: 62.6 IU/L
BUN [6]: 14.8 mg/dL
CRE [6]: 0.2 mg/dL
Ca [6]: 11 mg/dL
Cl [6]: 104.6 meq/L
DBIL [6]: 0.016 mg/dL
GLC [6]: 185 mg/dL
IP [6]: 7.9 mg/dL
K [6]: 4 meq/L
LDH [6]: 60.4 IU/L
Na [6]: 143.4 meq/L
PL [6]: 155.6 mg/dL
RALB [6]: 2.6 g/dL
TBIL [6]: 0.074 mg/dL
TC [6]: 75.2 mg/dL
TG [6]: 137 mg/dL
TP [6]: 5.7 g/dL
gamma-GTP [6]: 1.2 IU/L
A/G [7]: 0.9
ALP [7]: 1252.8 IU/L
ALT [7]: 40.2 IU/L
AST [7]: 62.6 IU/L
BUN [7]: 16.2 mg/dL
CRE [7]: 0.2 mg/dL
Ca [7]: 10.4 mg/dL
Cl [7]: 105 meq/L
DBIL [7]: 0.012 mg/dL
GLC [7]: 180.2 mg/dL
IP [7]: 7.5 mg/dL
K [7]: 3.8 meq/L
LDH [7]: 58 IU/L
Na [7]: 143.4 meq/L
PL [7]: 141.6 mg/dL
RALB [7]: 2.7 g/dL
TBIL [7]: 0.068 mg/dL
TC [7]: 67.4 mg/dL
TG [7]: 111.6 mg/dL
TP [7]: 5.8 g/dL
gamma-GTP [7]: 1 IU/L
A/G [8]: 0.8
ALP [8]: 1186.2 IU/L
ALT [8]: 35.6 IU/L
AST [8]: 63.4 IU/L
BUN [8]: 16.2 mg/dL
CRE [8]: 0.3 mg/dL
Ca [8]: 10.7 mg/dL
Cl [8]: 104.6 meq/L
DBIL [8]: 0.01 mg/dL
GLC [8]: 187.6 mg/dL
IP [8]: 6.6 mg/dL
K [8]: 3.9 meq/L
LDH [8]: 54.4 IU/L
Na [8]: 143 meq/L
PL [8]: 140.4 mg/dL
RALB [8]: 2.7 g/dL
TBIL [8]: 0.06 mg/dL
TC [8]: 69.6 mg/dL
TG [8]: 123 mg/dL
TP [8]: 6 g/dL
gamma-GTP [8]: 1 IU/L

— ChEMBL document CHEMBL3885861, “Open TG-GATES”
